Test results published in patent US20150038430A1, “THERAPEUTIC PEPTIDOMIMETIC MACROCYCLES” (AILERON Therapeutics, Inc., priority 2008, published 2015).
Numbered stars: 1 amine (or outer) side, 2 acyl side, 3 side chain; on linkers, the order of the positions; unused ones are H or OH. Bridge positions count the residues as written; N and C are the ends. Square brackets hold non-standard residues; d marks the D form. Peptide text beside a SMILES is read from it. ξ: configuration not given here. ξαMeNle(6-ylidene) = CC(CCCC=[*:3])(N[*:1])C(=O)[*:2]; Nle = CCCC[C@H](N)C(=O)O

Tests used:
Bcl-xL = Bcl-xL (Homo sapiens, UniProt Q07817); assay: Kd, μM | Bcl-xL
Chain of Bcl-xL (Q07817 whole entry, looked up): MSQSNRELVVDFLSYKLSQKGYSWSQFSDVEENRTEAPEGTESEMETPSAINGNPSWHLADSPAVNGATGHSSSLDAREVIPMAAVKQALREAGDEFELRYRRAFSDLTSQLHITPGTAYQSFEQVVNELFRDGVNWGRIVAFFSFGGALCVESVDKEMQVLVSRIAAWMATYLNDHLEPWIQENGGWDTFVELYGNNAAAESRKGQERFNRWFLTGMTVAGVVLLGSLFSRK
From the text: (§1) Table printed on a drawing sheet, Figure 27
Head of the field: Kd, μM | Bcl-xL
Where the first naming reader finds the target: head: Kd, μM | Bcl-xL

Bcl-2 = assay: Kd, μM | Bcl-2
From the text: as §1
Head of the field: Kd, μM | Bcl-2
First copying reader's note: The last row (ABT-737) is a small-molecule comparator; the three plots above the table are not copied.
Where the first naming reader finds the target: head: Kd, μM | Bcl-2

activated hPBLs = assay: BrdU cell proliferation assay; format: cell-based, human; details: hPBLs activated by PMA+ionomycin+LPS; 5 or 20 μM, 48 hrs; compared with 1 μM Rapamycin
Experimental: […] 1 μM Rapamycin was used as a positive control to inhibit BrdU incorporation. BrdU incorporation was assayed by ELISA according to manufacturer's instructions (Roche, catalog number 11444611001).

DHL-6 = format: cell-based, human; details: 24 h
Method in brief: (§2)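 Viability is determined after a 24 h, 37 °C treatment of 4000 cells/well in Opti-MEM with or without 2% human serum. Final macrocycle concentrations span 0.6–20 μM serum-free and 1.5–50 μM in serum. EC50 comes from CellTiter-Glo signal as percentage of DMSO-treated cells, run in duplicate.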

Molt-4 = format: cell-based, human; details: 24 h
Method in brief: as §2

Raji = format: cell-based, human; details: 24 h
Method in brief: as §2

A375 = format: cell-based, human; details: 24 h
Method in brief: as §2

OVCAR8 = format: cell-based, human; details: 24 h
Method in brief: as §2

PC3 = format: cell-based, human; details: 24 h
Method in brief: as §2

NCI-H82 (SCLC-MCL1+) = format: cell-based, human; details: 24 h
Method in brief: as §2

Jurkat = format: cell-based, human; details: 24 h
Method in brief: as §2

RS4;11 = format: cell-based, human; details: 24 h
Method in brief: as §2

MDA-MB231-Met = format: cell-based, human; details: 24 h
Method in brief: as §2

SEMK2 = format: cell-based, human; details: 24 h
Method in brief: as §2

MM1S = format: cell-based, human; details: 24 h
Method in brief: as §2

CCCC[C@H](NC(=O)C1(C)CCCC=CCCCC(C)(NC(=O)[C@H](C)NC(=O)[C@H](CC(C)C)NC(=O)[C@H](Cc2c[nH]cn2)NC(=O)[C@H](CCCNC(=N)N)NC(=O)[C@H](C)NC(=O)[C@@H](NC(=O)[C@H](CC(N)=O)NC(=O)[C@H](CCCNC(=N)N)NC(=O)[C@@H](NC(=O)[C@@H](NC(=O)[C@H](CC(=O)O)NC(C)=O)[C@@H](C)CC)[C@@H](C)CC)[C@@H](C)CC)C(=O)N[C@@H](C(C)C)C(=O)NCC(=O)N[C@@H](CC(=O)O)C(=O)N1)C(=O)N[C@@H](CC(=O)O)C(=O)N[C@@H](CCCNC(=N)N)C(=O)N[C@@H](CO)C(=O)N[C@H](C(N)=O)[C@@H](C)CC (stereo partly drawn) [SP-1] (Ac-DIIRNIARHLA[ξαMeNle(6-ylidene)]VGD[ξαMeNle(6-ylidene)][Nle]DRSI-NH2; staple 12-16)
Kd (Bcl-xL): < 0.1 µM
Kd (Bcl-2): 1 µM
blocking the proliferation of activated hPBLs (BrdU incorporation) (activated hPBLs): as effective as rapamycin
EC50 (DHL-6): 7 µM
EC50 (Molt-4): 4.3 µM
EC50 (Raji): 13 µM
EC50 (A375): 11 µM
EC50 (OVCAR8): 20 µM
EC50 (PC3): 20 µM
EC50 (NCI-H82 (SCLC-MCL1+)): 2.5 µM
EC50 (Jurkat): 2.5 µM
EC50 (RS4;11): > 20 µM
EC50 (MDA-MB231-Met): 9.8 µM
EC50 (SEMK2): 10 µM
EC50 (MM1S): 3.5 µM
